Several values for one entry are separate records, joined by “and”; a condition that tells them apart may be missing. Equal values may be shown once.
Legend:
[1] = molecular target: full-length wt-BTK enzyme (Homo sapiens (Human), UniProt Q06187); assay: Biochemical kinase assay wt-BTK (IMAP)
Summary of the method: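 IMAP fluorescence polarization assay: 1.2 nM enzyme pre-incubated 1 h with compound at room temperature, then 50 nM fluorescein-labeled MBP-derived peptide and 4 μM ATP added. Reaction ran 2 h at room temperature in the dark before quenching with IMAP binding solution.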

BTK T474I = BTK T474I (Homo sapiens (Human), UniProt Q06187, T474I); assay: Binding kinetics measurements (Surface Plasmon Resonance) on BTK T474I; conditions: for Kd: binding affinity by Surface Plasmon Resonance (SPR); for Tau (h) BTK T474I (Act): target residence time, SPR; for target residence time on BTK T474 mutants (T474I): result in words
Description: (§1) Binding kinetics measurements on wt-BTK, BTK […], BTK […], BTK […] and BTK […] (Surface Plasmon Resonance) Streptavidin-coated chips (Cat. No. BR100531), disposables and maintenance kits for Biacore were purchased from Cytiva (Eindhoven, The Netherlands). […] Remaining streptavidin was blocked with biocytin. Immobilization was performed at 4° C. Subsequent assay steps were conducted at 22° C. After changing buffer to Biacore buffer with 1% (v/v) dimethylsulfoxide (DMSO), a pre-run was performed for a period of at least 30 min at a flow rate of 30 μl/min to obtain a stable surface. The kinetic constants of the compounds were determined with single cycle kinetics with five consecutive injections with an increasing compound concentration with ranges of 3.16-316 nM. […] To circumvent problems of mass transport limitation, a flow rate of 30 μl/min was used. A blank run with the same conditions was performed before the compound was injected. The SPR sensorgrams were analyzed with Biacore Evaluation Software by using a method of double referencing. First the reference channel was subtracted from the channel containing immobilized protein. Subsequently, the reference curve obtained with buffer injections was subtracted. […] Compounds that bound according to an induced fit model were fitted with a two-state reaction model. The kinetic constants (ka, […], KD) of duplicates were geometrically averaged. […] Target residence for an induced fit model was calculated as described (Tummino and Copeland, 2008).

BTK T474S = BTK T474S (Homo sapiens (Human), UniProt Q06187, T474S); assay: Binding kinetics measurements (Surface Plasmon Resonance) on BTK T474S; conditions: for residence time: SPR binding kinetics, BTK T474S, read-out: Tau (h) BTK T474S (Act), target residence time (converted); for Kd: binding affinity by Surface Plasmon Resonance (SPR); for target residence time on BTK T474 mutants (T474S): result in words
Description: as §1

BTK T316A = BTK T316A (Homo sapiens (Human), UniProt Q06187, T316A); assay: Binding kinetics measurements (Surface Plasmon Resonance) on BTK T316A; conditions: for Kd: binding affinity by Surface Plasmon Resonance (SPR); for Tau (h) BTK T316A (Act): target residence time, SPR; for target residence time on BTK T316 mutants: result in words
Description: as §1

[2] = system: wt-TMD8 diffuse large B-cell lymphoma cells; assay: Cell proliferation assay wt-TMD8 (ATPlite, 120 hours); type: cell-based; conditions: B-cell; wt-TMD8 cells, 120 hours, ATPlite; read-out: IC50 wt-TMD8
Summary of the method: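 wt-TMD8 DLBCL cells, 1600 per well in RPMI-1640 with 10% FBS, rested ≥5 h then exposed to compound for 120 h at 37° C, 5% CO2. Viability read by ATPlite luminescence; percentage growth calculated relative to start-of-incubation signal and untreated 0.3% DMSO maximum growth.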

REC-1 T474I cell lines = assay: Cell proliferation assay REC-1 BTK T474I knock-in cells (ATPlite, 72 hours); type: cell-based; conditions: Homo sapiens, Rec1; 72 hours; read-out: IC50 REC-1 T474I
Summary of the method: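 REC-1 cells carrying CRISPR knock-in mutant BTK, single-cell cloned and sequence-confirmed, were exposed to compound for 72 h and read by ATPlite luminescence. Percentage growth was calculated against the signal at the start of incubation and against untreated 0.3% DMSO wells as maximum growth.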

[3] = system: wt-REC-1 mantle cell lymphoma cells; assay: Cell proliferation assay wt-REC-1 (ATPlite, 72 hours); type: cell-based; conditions: 72 h; read-out: IC50 wt-REC-1
Summary of the method: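 Luminescent viability read over 72 h, start-of-incubation signal recorded separately to separate growth from cell death. Percentage growth referenced to compound-free 0.3% DMSO wells; IC50 from 4-parameter logistic fit.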

wt-BTK = wt-BTK (Homo sapiens (Human), UniProt Q06187); assay: Binding kinetics measurements (Surface Plasmon Resonance) on wt-BTK; conditions: for Kd: binding affinity by Surface Plasmon Resonance (SPR); for Tau (h) wt-BTK (Act): target residence time, SPR; for target residence time on wild-type-BTK: result in words
Summary of the method: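 SPR on biotinylated wild-type or mutant human BTK captured on streptavidin chips (immobilized at 4° C, assay at 22° C), buffer with 1% DMSO, 30 μl/min. Single-cycle kinetics, five injections of 3.16-316 nM compound; double-referenced sensorgrams fitted (two-state model for induced fit), duplicate ka, kd, KD geometrically averaged.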

[4] = molecular target: full-length BTK C481S enzyme (Homo sapiens (Human), UniProt Q06187, C481S); assay: Biochemical kinase assay BTK C481S (IMAP)
Summary of the method: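 Full-length BTK C481S (1.2 nM) was pre-incubated with compound for 1 h at room temperature in the dark, then reacted with fluorescein-labelled MBP-derived peptide (50 nM) and ATP (7 μM) for 2 h. Reactions were quenched with IMAP binding solution, and IC50 values were derived from fluorescence polarization.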

BTK C481S = BTK C481S (Homo sapiens (Human), UniProt Q06187, C481S); assay: Binding kinetics measurements (Surface Plasmon Resonance) on BTK C481S; conditions: for Kd: binding affinity by Surface Plasmon Resonance (SPR); for Tau (h) BTK C418S (Act): target residence time for BTK C481S, SPR; for target residence time on BTK C481 mutants: result in words
Description: as §1

BTK C481S, sequence (Q06187 whole entry C481S): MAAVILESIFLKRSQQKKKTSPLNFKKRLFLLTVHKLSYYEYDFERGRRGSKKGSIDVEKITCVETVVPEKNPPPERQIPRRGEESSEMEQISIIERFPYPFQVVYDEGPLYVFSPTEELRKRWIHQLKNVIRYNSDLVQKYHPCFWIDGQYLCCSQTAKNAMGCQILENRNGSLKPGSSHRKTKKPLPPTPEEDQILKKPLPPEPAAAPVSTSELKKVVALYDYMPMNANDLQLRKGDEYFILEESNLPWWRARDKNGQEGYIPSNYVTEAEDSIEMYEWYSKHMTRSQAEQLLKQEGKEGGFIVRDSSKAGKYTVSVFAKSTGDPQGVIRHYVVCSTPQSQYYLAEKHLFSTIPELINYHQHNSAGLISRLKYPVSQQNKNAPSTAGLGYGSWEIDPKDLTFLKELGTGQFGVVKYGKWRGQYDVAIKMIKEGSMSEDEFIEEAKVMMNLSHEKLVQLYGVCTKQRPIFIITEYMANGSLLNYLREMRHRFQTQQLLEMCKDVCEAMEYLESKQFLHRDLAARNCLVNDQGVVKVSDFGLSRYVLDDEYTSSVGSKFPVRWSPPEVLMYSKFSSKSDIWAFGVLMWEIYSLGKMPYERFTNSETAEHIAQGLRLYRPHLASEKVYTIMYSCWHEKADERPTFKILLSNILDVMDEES
full-length BTK C481S enzyme, sequence (Q06187 whole entry C481S): as above
BTK T474S, sequence (Q06187 whole entry T474S): as the sequence (Q06187 whole entry C481S) above, with T474S, S481C counted along it
BTK T474I, sequence (Q06187 whole entry T474I): as the sequence (Q06187 whole entry C481S) above, with T474I, S481C counted along it
BTK T316A, sequence (Q06187 whole entry T316A): as the sequence (Q06187 whole entry C481S) above, with T316A, S481C counted along it
wt-BTK, sequence (Q06187 whole entry): as the sequence (Q06187 whole entry C481S) above, with S481C counted along it
full-length wt-BTK enzyme, sequence (Q06187 whole entry): as the sequence (Q06187 whole entry C481S) above, with S481C counted along it

| SMILES | IC50 [1] | Kd (BTK T474I) | Tau (h) BTK T474I (Act) (BTK T474I) | residence time (BTK T474S) | Kd (BTK T474S) | Kd (BTK T316A) | Tau (h) BTK T316A (Act) (BTK T316A) | IC50 [2] | IC50 (REC-1 T474I cell lines) | IC50 [3] | Kd (wt-BTK) | Tau (h) wt-BTK (Act) (wt-BTK) | IC50 [4] | Kd (BTK C481S) | Tau (h) BTK C418S (Act) (BTK C481S) | target residence time on BTK T474 mutants (T474I) (BTK T474I) | target residence time on BTK T474 mutants (T474S) (BTK T474S) | target residence time on BTK T316 mutants (BTK T316A) | target residence time on BTK C481 mutants (BTK C481S) | target residence time on wild-type-BTK (wt-BTK) |
| --- | --- | --- | --- | --- | --- | --- | --- | --- | --- | --- | --- | --- | --- | --- | --- | --- | --- | --- | --- | --- |
| Nc1ncc2c3c1c(-c1ccc(C(=O)Nc4cc(C(F)(F)F)ccn4)cc1)nn3[C@@H]1CCC[C@H](C1)NC(=O)COCCC/C=C/2 [Example 18] | < 5 nM | < 2 nM | 0.63 h | 5.15 h | < 3 nM | < 5 nM | 4.74 h | < 100 nM | < 100 nM | < 100 nM | < 5 nM | 4.53 h | < 5 nM |  |  |  |  |  |  |  |
| Nc1ncc2c3c1c(-c1ccc(C(=O)Nc4ccccn4)cc1)nn3[C@@H]1CCC[C@H](C1)NC(=O)CCCCC/C=C/2 [Example 24] |  | < 2 nM |  |  | < 3 nM | < 5 nM |  |  |  |  | < 5 nM |  |  | < 5 nM |  |  |  |  |  |  |
| C[C@@H]1CC(=O)N[C@@H]2CCC[C@H](C2)n2nc(-c3ccc(C(=O)Nc4cc(C(F)(F)F)ccn4)cc3)c3c(N)ncc(c32)/C=C/CCN1C [Example 40] | < 5 nM | < 2 nM | 0.85 h | 8.38 h | < 3 nM | < 5 nM | 2.16 h | < 100 nM | < 100 nM | < 100 nM | < 5 nM | 6.49 h | < 5 nM |  |  |  |  |  |  |  |
| C[C@@H]1CCn2nc(-c3ccc(C(=O)Nc4cc(C(F)(F)F)ccn4)cc3)c3c(N)ncc(c32)/C=C/CSCC(=O)N1 [Example 61] | < 5 nM | < 2 nM |  | 2.48 h | < 3 nM | < 5 nM | 1.85 h | < 100 nM |  | < 100 nM | < 5 nM | 4.95 h | < 5 nM | < 5 nM | 7.19 h |  |  |  |  |  |
| Nc1ncc2c3c1c(-c1ccc(C(=O)Nc4cc(C(F)(F)F)ccn4)cc1)nn3[C@@H]1CCC[C@H](C1)NC(=O)CCCC/C=C\C2 [Example 98b] | < 5 nM | 10 to 50 nM and < 5 nM | 1.14 h | 4.46 h | < 3 nM | < 5 nM | 3.58 h |  |  | 100 to 1000 nM | < 5 nM | 4.35 h | < 5 nM | < 5 nM | 5.98 h |  |  |  |  |  |
| Nc1ncc2c3c1c(-c1ccc(C(=O)Nc4cc(C(F)(F)F)ccn4)cc1)nn3[C@@H]1CCC[C@H](C1)C(=O)NCCCCCCC2 [Example 115] | < 5 nM | 10 to 50 nM and < 5 nM |  | 3.89 h | < 3 nM | < 5 nM | 2.96 h |  | 100 to 500 nM | 100 to 1000 nM | < 5 nM | 5.09 h | < 5 nM | < 5 nM | 6.25 h |  |  |  |  |  |
| Nc1ncc2n3c(nc(-c4ccc(C(=O)Nc5cc(C(F)(F)F)ccn5)cc4)c13)[C@@H]1CCC[C@H](C1)NC(=O)CCCC/C=C/2 [Example 130] | < 5 nM | < 2 nM |  | 1.64 h | < 3 nM | < 5 nM | 2.22 h | < 100 nM |  | < 100 nM | < 5 nM | 2.86 h | < 5 nM | < 5 nM | 3.83 h |  |  |  |  |  |
| Nc1ncc2n3c(nc(-c4ccc(C(=O)Nc5cc(C(F)(F)F)ccn5)cc4)c13)[C@@H]1CCC[C@H](C1)NC(=O)CCC/C=C/2 [Example 132] | < 5 nM | < 2 nM |  | 3.04 h | < 3 nM | < 5 nM | 1.58 h |  | 500 to 10000 nM | 100 to 1000 nM | < 5 nM | 2.75 h | < 5 nM | < 5 nM | 3.96 h |  |  |  |  |  |
| Nc1ncc2n3c(nc(-c4ccc(C(=O)Nc5cc(C(F)(F)F)ccn5)cc4)c13)C1CCC[C@H](C1)NC(=O)CCC/C=C\C2 [Example 133b] |  |  |  | 3.12 h |  |  | 1.96 h | < 100 nM |  | < 100 nM |  | 4.39 h |  |  | 7.08 h |  |  |  |  |  |
| Nc1ncc2n3c(nc(-c4ccc(C(=O)Nc5cc(C(F)(F)F)ccn5)cc4)c13)[C@@H]1CCC[C@H](C1)NC(=O)CCC/C=C\C2 [Example 133b] | < 5 nM | < 2 nM |  |  | < 3 nM | < 5 nM |  |  |  |  | < 5 nM |  | < 5 nM | < 5 nM |  |  |  |  |  |  |
| C[C@@H]1CC(=O)N[C@@H]2CC[C@H](C2)n2nc(-c3ccc(C(=O)Nc4cc(C(F)(F)F)ccn4)cc3)c3c(N)ncc(c32)/C=C/CCN1 [Example 175] | < 5 nM |  | 1.31 h | 1.14 h |  |  | 3.51 h | < 100 nM | 100 to 500 nM | < 100 nM |  |  | < 5 nM | < 5 nM | 4.68 h |  |  |  |  |  |
| C[C@@H]1C[C@@H](C)n2nc(-c3ccc(C(=O)Nc4cc(C(F)(F)F)ccn4)cc3)c3c(N)ncc(c32)/C=C/COCCC(=O)N1 [Example 176] | < 5 nM |  | 1.94 h | 1.95 h |  |  | 5.38 h | < 100 nM | < 100 nM | < 100 nM |  | 3.13 h | < 5 nM |  |  |  |  |  |  |  |
| C[C@H]1CN(C2COC2)CCN1c1ccc(Nc2cc(-c3ccnc(N4CCn5c(cc6c5CC(C)(C)C6)C4=O)c3CO)cn(C)c2=O)nc1 [fenebrutinib, reference compound] |  |  | 0.19 h | 0.93 h |  |  | 0.03 h |  |  |  |  | 0.29 h |  |  | 0.08 h | short target residence times | short target residence times | short target residence times | short target residence times | short target residence times |
| NC(=O)[C@H]1CCN(c2ncnc(N)c2F)C[C@@H]1N1CCC[C@@H](Nc2cc(Cl)cc(C(F)(F)F)c2)C1=O [vecabrutinib, reference compound] |  |  | 0.01 h | 0.07 h |  |  | 0.05 h |  |  |  |  | 0.18 h |  |  | 0.12 h | short target residence times | short target residence times | short target residence times | short target residence times | short target residence times |

From patent US20250074911A1, “MACROCYCLIC BTK INHIBITORS” (Crossfire Oncology Holding B.V., priority 2021, published 2025)
